Each compound was assayed against T1, human GPR139 (Homo sapiens, UniProt Q6DWJ6) (assay: Inhibition rate of the amount of IP1 in GPR139-expressed CHO cells (inverse agonist assay, IP-ONE HTRF)). Conditions: 30 μM compound; CHO-TREx cells expressing human GPR139; vehicle set to 0%, IP1 concentration 0 set to 100%; read-out: inhibition rate of the amount of IP1.
T1 construct: expressed in transfected cells; host or cells: CHO-TREx (Life Technologies) cells, expression induced with doxycycline
T1 sequence (Q6DWJ6 1-353): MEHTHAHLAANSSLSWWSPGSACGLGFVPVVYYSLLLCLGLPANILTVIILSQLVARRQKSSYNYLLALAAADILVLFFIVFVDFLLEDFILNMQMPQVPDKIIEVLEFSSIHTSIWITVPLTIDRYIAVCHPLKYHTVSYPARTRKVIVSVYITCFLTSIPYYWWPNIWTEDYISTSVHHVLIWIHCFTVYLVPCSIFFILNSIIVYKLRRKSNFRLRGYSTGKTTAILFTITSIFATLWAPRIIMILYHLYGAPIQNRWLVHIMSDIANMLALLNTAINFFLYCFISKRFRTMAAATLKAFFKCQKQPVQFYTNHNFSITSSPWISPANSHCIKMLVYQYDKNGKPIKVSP
Format: cell-based
Method: Measurement of the inhibition rate of the amount of IP1 in 30 µM of the compound of Reference Example 1 in GPR139-expressed CHO cells
Changes in the amount of IP1 in GPR139-expressed CHO cells were measured in order to evaluate the activity of the compound via GPR139. GPR139 is a Gq-coupled receptor which varies intracellular calcium (Liu C et al., Mol Pharmacol. 2015 November; 88(5):911-25), so the amount of IP1, which is a stable metabolite of the second messenger IP3, changes due to activity regulation of GPR139. GPR139 is considered to be […] when expressed recombinantly in mammal cells, so a compound having a GPR139 receptor inverse agonist action is expected to reduce the amount of IP1 production.
The measurement of IP1 was made using an IP-ONE HTFR assay kit (cis-bio) and CHO-TREx (Life Technologies) cells stably transfected with GPR139. The CHO-TREx cells expressed human GPR139 with a tetracycline-inducing element. The cells were cultured in a medium containing F12K and 10% tetracycline-free FBS, and the expression of human GPR139 was induced over the course of 17 hours under conditions of 37° C. and 5% CO2 in the presence of 2 μg/mL of doxycycline (Clontech, 631311) in the growth medium on the day before assay. On the day of the test, after the cells were washed with 10 mL of PBS, the cells were detached with TrypLE Express (Life Technologies) and centrifuged at 1,000 rpm to form pellets, and a cell suspension was then prepared using a stimulation buffer (cis-bio, included in the IP-ONE HTRF assay kit).
The compound was diluted with the stimulation buffer, and 4 μL was added to a 384-well white assay plate (Greiner). The cell suspension was added so that there were 2000 cells per well, and the assay plate was left to stand for 40 minutes at 37° C. Equal amounts of iP1-d2 and Ab-Crp solutions (both available from cis-bio, included in the IP-ONE HTRF assay kit) prepared with a lysis buffer (cis-bio, included in the IP-ONE HTRF assay kit) were mixed, and 4 μL was added to the assay plate and left to stand for one hour at room temperature. After the fluorescence strengths of two wavelengths were measured by the HTRF settings of Envision (PerkinElmer), the value of Ratio=((Signal 665 nm)/(Signal 615 nm))×10000 was calculated.
Measurement of the Inhibition Rate of the Amount of IP1 in GPR139-Expressed CHO Cells (Inverse Agonist Assay)
The activities of the compounds of Examples 20 to 33 were expressed as relative values in Table 2 by measuring the inhibition rate of the amount of IP1 with the same method as in Test Example 1 and defining the inhibition rate of the amount of IP1 of the compound of Reference Example 1 in Test Example 1 as 100%.

SMILES | inhibition at 30 µM
CCn1cc(Cn2ccn(-c3cc(N4CCO[C@H](C)C4)cc(C(F)(F)F)c3F)c2=O)cn1 [Reference Example 1, 1-[(1-Ethyl-1H-pyrazole-4-yl)methyl]-3-{2-fluoro-5-[(2R)-2-methylmorpholine-4-yl]-3-(trifluoromethyl)phenyl}-1,3-dihydro-2H-imidazole-2-one, reference compound] | 84%

Same assay, conditions: relative value; inhibition rate of Reference Example 1 in Test Example 1 defined as 100%; GPR139-expressed CHO cells; read-out: IP1 Inhibition Rate at 30 μM

SMILES | inhibition at 30 µM
CCn1cc(Cc2cccn(-c3cc(N4CCO[C@H](C)C4)cc(C4CC4)c3F)c2=O)cn1 [Example 20, 1-{3-cyclopropyl-2-fluoro-5-[(2R)-2-methylmorpholin-4-yl]phenyl}-3-[(1-ethyl-1H-pyrazol-4-yl)methyl]pyridin-2(1H)-one] | 96%
CCn1cc(Cc2cccn(-c3cc(N4CCOC(C)(C)C4)cc(C4CC4)c3F)c2=O)cn1 [Example 21, 1-[3-cyclopropyl-5-(2,2-dimethylmorpholin-4-yl)-2-fluorophenyl]-3-[(1-ethyl-1H-pyrazol-4-yl)methyl]pyridin-2(1H)-one] | 96%
CCn1cc(Cc2cccn(-c3cc(OC4CCOCC4)cc(C4CC4)c3F)c2=O)cn1 [Example 22, 1-{3-cyclopropyl-2-fluoro-5-[(oxan-4-yl)oxy]phenyl}-3-[(1-ethyl-1H-pyrazol-4-yl)methyl]pyridin-2(1H)-one] | 98%
CCn1cc(Cc2cccn(-c3cc(OC4CCOCC4)cc(Br)c3F)c2=O)cn1 [Example 23, 1-{3-bromo-2-fluoro-5-[(oxan-4-yl)oxy]phenyl}-3-[(1-ethyl-1H-pyrazol-4-yl)methyl]pyridin-2(1H)-one] | 100%
CCn1cc(Cc2cccn(-c3cc(N4CCO[C@H](C)C4)cc(OC(F)(F)F)c3F)c2=O)cn1 [Example 24, 3-[(1-ethyl-1H-pyrazol-4-yl)methyl]-1-{2-fluoro-5-[(2R)-2-methylmorpholin-4-yl]-3-(trifluoromethoxy)phenyl}pyridin-2(1H)-one] | 98%
CC(C)n1cc(Cc2cccn(-c3cc(N4CCO[C@H](C)C4)cc(C4CC4)c3F)c2=O)cn1 [Example 25, 1-{3-cyclopropyl-2-fluoro-5-[(2R)-2-methylmorpholin-4-yl]phenyl}-3-{[1-(propan-2-yl)-1H-pyrazol-4-yl]methyl}pyridin-2(1H)-one] | 95%
CCn1cc(Cc2c(F)ccn(-c3cc(N4CCO[C@H](C)C4)cc(C4CC4)c3F)c2=O)cn1 [Example 26, 1-{3-cyclopropyl-2-fluoro-5-[(2R)-2-methylmorpholin-4-yl]phenyl}-3-[(1-ethyl-1H-pyrazol-4-yl)methyl]-4-fluoropyridin-2(1H)-one] | 97%
CCn1cc(Cc2cccn(-c3cc(N4CCO[C@H](C)C4)cc(C(C)C)c3F)c2=O)cn1 [Example 27, 3-[(1-ethyl-1H-pyrazol-4-yl)methyl]-1-{2-fluoro-5-[(2R)-2-methylmorpholin-4-yl]-3-(propan-2-yl)phenyl}pyridin-2(1H)-one] | 96%
CCn1cc(Cc2cccn(-c3cc(N4CCO[C@H](C)C4)cc(CC(F)(F)F)c3F)c2=O)cn1 [Example 28, 3-[(1-ethyl-1H-pyrazol-4-yl)methyl]-1-{2-fluoro-5-[(2R)-2-methylmorpholin-4-yl]-3-(2,2,2-trifluoroethyl)phenyl}pyridin-2(1H)-one] | 100%
CCn1cc(Cc2ccc(C)n(-c3cc(C4CC4)cc(N4CCO[C@H](C)C4)c3)c2=O)cn1 [Example 29, 1-{3-cyclopropyl-5-[(2R)-2-methylmorpholin-4-yl]phenyl}-3-[(1-ethyl-1H-pyrazol-4-yl)methyl]-6-methylpyridin-2(1H)-one] | 102%
CCn1cc(Cc2cccn(-c3cc(N4CCC(F)(F)CC4)cc(C4CC4(F)F)c3F)c2=O)cn1 (stereo not drawn) [Example 30, 1-[3-(2,2-difluorocyclopropyl)-5-(4,4-difluoropiperidin-1-yl)-2-fluorophenyl]-3-[(1-ethyl-1H-pyrazol-4-yl)methyl]pyridin-2(1H)-one] | 97%
CCn1cc(Cc2ccc(F)n(-c3cc(C4CC4)cc(N4CCO[C@H](C)C4)c3)c2=O)cn1 [Example 31, 1-{3-cyclopropyl-5-[(2R)-2-methylmorpholin-4-yl]phenyl}-3-[(1-ethyl-1H-pyrazol-4-yl)methyl]-6-fluoropyridin-2(1H)-one] | 100%
CCn1cc(Cc2cc(C)cn(-c3cc(N4CCO[C@H](C)C4)cc(C4CC4)c3F)c2=O)cn1 [Example 32, 1-{3-cyclopropyl-2-fluoro-5-[(2R)-2-methylmorpholin-4-yl]phenyl}-3-[(1-ethyl-1H-pyrazol-4-yl)methyl]-5-methylpyridin-2(1H)-one] | 99%
CCn1cc(Cc2c(C)ccn(-c3cc(N4CCO[C@H](C)C4)cc(C4CC4)c3F)c2=O)cn1 [Example 33, 1-{3-cyclopropyl-2-fluoro-5-[(2R)-2-methylmorpholin-4-yl]phenyl}-3-[(1-ethyl-1H-pyrazol-4-yl)methyl]-4-methylpyridin-2(1H)-one] | 96%
